Patent publication US8586622B2, “Laminin-332 product on stimulating composition” (Shiseido Company, Ltd., priority 2009, dated 2013)
Where two headings read alike, the source gives them in different places.

Experiments:
[1] = system: HaCaT cells; assay: Quantification of number of viable HaCaT cells (alamarBlue); details: for fluorescence intensity of alamarBlue: 1 μM
Procedure: (§1) Human epidermal-derived HaCaT cells (H. Hans, et al., Experimental Cell Research, 239:399 (1998)) and human keratinocyte-derived KC cells (Sanko Junyaku Co., Ltd., manufacturer: LONZA Walkersville Inc.) were used. The cells were inoculated to a 24-well plate to have 4×10^4 cells per well. The cells were then cultured for 24 hours in a medium for cell culture (D-MEM (1 g/L glucose), manufactured by Wako Pure Chemical Industries, Ltd.) to which 0.1% bovine serum albumin (BSA) is supplemented (hereinafter, referred to as a “standard medium”) in a 5% CO2 and saturated water vapor atmosphere at 37° C. (degrees Celsius).
(§2) D-hydroxyproline used in this example was 4-cis-D-hydroxyproline.
(§3) After collecting the culture medium, the cells were washed with PBS and added with alamarBlue (trademark: Biosource International, Inc.) to have final concentration of 10%. Two hours later, according to the methods by Ahmed S. A. et al., (J. Immunol. Method., 170, 211-224 (1994)) and the instructions provided by the manufacturer, fluorescent intensity of the alamarBlue solution was measured with excitation wavelength of 544 nm and emission wavelength of 590 nm.

[2] = system: laminin-332 production in HaCaT cells; assay: Laminin-332 production in HaCaT cells (sandwich ELISA, relative to cell number), Example 1; type: cell-based, human; details: 1 μM; for relative value of laminin-332 concentration compared to the number of cells: 24 hours, negative control 0.04
Procedure: (§4) After completing the cell culture, culture medium was collected and centrifuged at 3000 rpm for five minutes. Concentration of laminin-332 in the supernatant was measured by ELISA (Amano, S., et al., J. Immunol. Methods, 224:161 (1999)). The ELISA used was sandwich type which utilizes biotinylated conjugate of BM165, i.e., a monoclonal antibody against α (alpha) 3 chain of laminin-5, and 6F12, i.e., a monoclonal antibody against β (beta)3 chain of laminin-5, and detection was carried out by utilizing avidin D labeled with a horseradish peroxidase (Vector Laboratories, Catalogue No. A-2004). PBS was used as a control.
The vertical line of the graph in FIG. 5 represents, the relative values of laminin-332 concentration compared to the number of cells that are present in culture supernatant in each well. The error bars for each experimental condition indicate the standard deviations of experimentally measured values obtained by repeating the experiment three times under the identical condition.

[3] = system: laminin-332 production in HaCaT cells; assay: Laminin-332 concentration in HaCaT culture supernatant after addition of various amino acids, Example 2; type: cell-based, human; details: for concentration of laminin-332 in the culture supernatant / stimulation of the production of laminin-332 (in words): HaCaT cells; for concentration of laminin-332 in the culture supernatant: 24 hours, negative control 1.5-1.8 ng/mL; for stimulation of the production of laminin-332 (in words): 10 nM, 100 nM, 1000 nM; for effect on stimulating production of laminin-332 (conclusion in words): Examples 1 and 2, KC and HaCaT cells
Procedure: as §4
Cell culture was carried out in the same manner as the Example 1 by using HaCaT cells. After that, the medium was switched to the standard medium added with amino acids such as L- or D-alanine, L- or D-hydroxyproline, L- or D-aspartic acid, L- or D-asparagine, L- or D-proline, or L- or D-serine with the concentration of 10 nM, 100 nM, or 1000 nM, and cultured for 24 hours. The standard medium to which no amino acid had been added was used as a negative control. […] The production amount of laminin-332 was measured in the same manner as the Example 1.
The vertical line of the graph in FIG. 7 represents the concentrations (ng/mL) of laminin-332 in the culture supernatant in each well. The error bars for each experimental condition indicate the standard deviations of experimentally measured values obtained by repeating the experiment four times under the identical condition.

[4] = system: KC cells; assay: Quantification of number of viable KC cells (alamarBlue); type: cell-based, human; details: for relative fluorescence intensity of alamarBlue: 1 μM, 24 hours, negative control 50; for cytotoxicity against KC cells: alamarBlue, no significant difference to negative control by Tukey-Kramer's test
Procedure: as §1, §2, §3

[5] = system: laminin-332 production in KC cells; assay: Laminin-332 production in KC cells (sandwich ELISA of culture supernatant, relative to cell number); type: cell-based, human; details: 1 μM; for relative value of laminin-332 concentration compared to the number of cells: 24 hours, negative control 0.35
Procedure: as §1, §2
PBS was used as a control.
as §3

[6] = HaCaT cells, 24 hours, negative control 300
[7] = HaCaT cells, alamarBlue, no significant difference to negative control by Tukey-Kramer's test

## O=C(O)[C@@H]1C[C@@H](O)CN1 [L-hydroxyproline]
[1]; [6]
  fluorescence intensity of alamarBlue: 280
[1]; [7]
  cytotoxicity for HaCaT cells: no cytotoxicity
[2]
  relative value of laminin-332 concentration compared to the number of cells: 0.05
[3]; amino acid 10 nM
  concentration of laminin-332 in the culture supernatant: 1.5 ng/mL
[3]; amino acid 100 nM
  concentration of laminin-332 in the culture supernatant: 2.3 ng/mL
[3]; amino acid 1000 nM
  concentration of laminin-332 in the culture supernatant: 2.7 ng/mL

## N[C@H](CO)C(=O)O [D-serine]
[3]
  stimulation of the production of laminin-332 (in words): do not stimulate the production of laminin-332
[3]; amino acid 10 nM
  concentration of laminin-332 in the culture supernatant: 1.8 ng/mL
[3]; amino acid 100 nM
  concentration of laminin-332 in the culture supernatant: 1.8 ng/mL
[3]; amino acid 1000 nM
  concentration of laminin-332 in the culture supernatant: 1.8 ng/mL

## NC(=O)C[C@@H](N)C(=O)O [D-asparagine]
[3]
  stimulation of the production of laminin-332 (in words): do not stimulate the production of laminin-332
[3]; amino acid 10 nM
  concentration of laminin-332 in the culture supernatant: 1.5 ng/mL
[3]; amino acid 100 nM
  concentration of laminin-332 in the culture supernatant: 1.5 ng/mL
[3]; amino acid 1000 nM
  concentration of laminin-332 in the culture supernatant: 1.5 ng/mL

## O=C(O)[C@@H]1CCCN1 [L-proline]
[3]
  stimulation of the production of laminin-332 (in words): do not stimulate the production of laminin-332
[3]; amino acid 10 nM
  concentration of laminin-332 in the culture supernatant: 1.8 ng/mL
[3]; amino acid 100 nM
  concentration of laminin-332 in the culture supernatant: 1.9 ng/mL
[3]; amino acid 1000 nM
  concentration of laminin-332 in the culture supernatant: 1.9 ng/mL

## O=C(O)[C@H]1C[C@@H](O)CN1 (relative stereo) [D-hydroxyproline, 4-cis-D-hydroxyproline]
[1]; [6]
  fluorescence intensity of alamarBlue: 280
[1]; [7]
  cytotoxicity for HaCaT cells: no cytotoxicity
[2]
  relative value of laminin-332 concentration compared to the number of cells: 0.065
[3]
  effect on stimulating production of laminin-332 (conclusion in words): effect on stimulating production of laminin-332 was observed
[3]; amino acid 10 nM
  concentration of laminin-332 in the culture supernatant: 1.5 ng/mL
[3]; amino acid 100 nM
  concentration of laminin-332 in the culture supernatant: 3.3 ng/mL
[3]; amino acid 1000 nM
  concentration of laminin-332 in the culture supernatant: 4.4 ng/mL

## C[C@H](N)C(=O)O [L-alanine]
[4]
  relative fluorescence intensity of alamarBlue: 40
  cytotoxicity against KC cells: no cytotoxicity
[5]
  relative value of laminin-332 concentration compared to the number of cells: 0.40
[1]
  cytotoxicity for HaCaT cells: no cytotoxicity
[1]; human, 24 h
  fluorescence intensity of alamarBlue: 250
[2]
  relative value of laminin-332 concentration compared to the number of cells: 0.07
[3]; amino acid 10 nM
  concentration of laminin-332 in the culture supernatant: 1.7 ng/mL
[3]; amino acid 100 nM
  concentration of laminin-332 in the culture supernatant: 2.3 ng/mL
[3]; amino acid 1000 nM
  concentration of laminin-332 in the culture supernatant: 2.8 ng/mL

## C[C@@H](N)C(=O)O [D-alanine]
[4]
  relative fluorescence intensity of alamarBlue: 45
  cytotoxicity against KC cells: no cytotoxicity
[5]
  relative value of laminin-332 concentration compared to the number of cells: 0.50
[5]; p less than 1% vs negative control by Tukey-Kramer's test
  stimulation of laminin-332 production in KC cells (in words): stimulated production of laminin-332
[1]
  cytotoxicity for HaCaT cells: no cytotoxicity
[1]; human, 24 h
  fluorescence intensity of alamarBlue: 250
[2]
  relative value of laminin-332 concentration compared to the number of cells: 0.11
[2]; p less than 1% vs negative control by Scheffe's F test
  stimulation of laminin-332 production in HaCaT cells (in words): stimulated production of laminin-332
[3]
  effect on stimulating production of laminin-332 (conclusion in words): effect on stimulating production of laminin-332 was observed
[3]; amino acid 10 nM
  concentration of laminin-332 in the culture supernatant: 1.7 ng/mL
[3]; amino acid 100 nM
  concentration of laminin-332 in the culture supernatant: 3.4 ng/mL
[3]; amino acid 1000 nM
  concentration of laminin-332 in the culture supernatant: 4.8 ng/mL

## N[C@@H](CO)C(=O)O [L-serine]
[3]
  stimulation of the production of laminin-332 (in words): do not stimulate the production of laminin-332
[3]; amino acid 10 nM
  concentration of laminin-332 in the culture supernatant: 1.8 ng/mL
[3]; amino acid 100 nM
  concentration of laminin-332 in the culture supernatant: 1.9 ng/mL
[3]; amino acid 1000 nM
  concentration of laminin-332 in the culture supernatant: 1.9 ng/mL

## N[C@H](CC(=O)O)C(=O)O [D-aspartic acid]
[3]
  stimulation of the production of laminin-332 (in words): do not stimulate the production of laminin-332
[3]; amino acid 10 nM
  concentration of laminin-332 in the culture supernatant: 1.9 ng/mL
[3]; amino acid 100 nM
  concentration of laminin-332 in the culture supernatant: 1.9 ng/mL
[3]; amino acid 1000 nM
  concentration of laminin-332 in the culture supernatant: 1.7 ng/mL

## O=C(O)[C@H]1CCCN1 [D-proline]
[3]
  stimulation of the production of laminin-332 (in words): do not stimulate the production of laminin-332
[3]; amino acid 10 nM
  concentration of laminin-332 in the culture supernatant: 2.0 ng/mL
[3]; amino acid 100 nM
  concentration of laminin-332 in the culture supernatant: 1.9 ng/mL
[3]; amino acid 1000 nM
  concentration of laminin-332 in the culture supernatant: 1.9 ng/mL

## N[C@@H](CC(=O)O)C(=O)O [L-aspartic acid]
[3]
  stimulation of the production of laminin-332 (in words): do not stimulate the production of laminin-332
[3]; amino acid 10 nM
  concentration of laminin-332 in the culture supernatant: 1.8 ng/mL
[3]; amino acid 100 nM
  concentration of laminin-332 in the culture supernatant: 1.8 ng/mL
[3]; amino acid 1000 nM
  concentration of laminin-332 in the culture supernatant: 2.0 ng/mL

## NC(=O)C[C@H](N)C(=O)O [L-asparagine]
[3]
  stimulation of the production of laminin-332 (in words): do not stimulate the production of laminin-332
[3]; amino acid 10 nM
  concentration of laminin-332 in the culture supernatant: 1.6 ng/mL
[3]; amino acid 100 nM
  concentration of laminin-332 in the culture supernatant: 1.5 ng/mL
[3]; amino acid 1000 nM
  concentration of laminin-332 in the culture supernatant: 1.6 ng/mL
